Source: patent publication EP2292587A1, “PHARMACEUTICAL COMPOSITION FOR INHIBITING THE TRANSCRIPTION FACTOR INDUCIBLE BY HYPOXIA, MODULATORS OF PATHOLOGICAL PROCESSES OF ANGIOGENESIS, ONCOGENESIS, INFLAMMATION, APOPTOSIS, AND CELLULAR THERAPY” (Fundacion De La Comunidad Valenciana Centro De …, priority 2008, dated 2009)

Legend:
mTOR = assay: activation kinetics of mTOR signaling pathway, HCT116/p53-/-; type: cell-based, human; settings: 0.5 µM
Method: (§1) Due to the crucial role of p53 as a tumor-suppressing agent, it was analyzed in HCT116 cells how FM19G11 affected the activation kinetics of proteins involved in favoring cell cycle progress, specifically the mTOR cell signaling pathway. An increase of cell progress can be due to replicative stress which generates DNA damage (Bartkova, J, Horejsi, Z, Koed, K, Kramer, A, Tort, F, Zieger, K et al., (2005) DNA damage response as a candidate anti-cancer barrier in early human tumorigenesis. Nature 434: 864-70; Bartkova, J, Rezaei, N, Liontos, M, Karakaidos, P, Kletsas, D, Issaeva, N et al., (2006) Oncogene-induced senescence is part of the tumorigenesis barrier imposed by DNA damage checkpoints. Nature 444: 633-7; Di Micco, R, Fumagalli, M, Cicalese, A, Piccinin, S, Gasparini, P, Luise, C et al., (2006) Oncogene-induced senescence is a DNA damage response triggered by DNA hyper-replication. Nature 444: 638-42), it was explored if the DDR triggered by FM19G11 was related to an increase of the cell cycle progress signal modulated by the mTOR signaling pathway. […]

c-FOS = assay: selectivity luciferase assay, Hek 293-TRE-LUC; type: cell-based; settings: 0-1 µM, 6 hours
Method: The selectivity assays with the active compound FM19G11 were performed in white 96-well plates using the recombinant strains Hek 293-TRE-LUC and Hek 293-CRE-LUC which represent the transcriptional activity of transcription factors of the AP-1 complex. The luciferase assay for measuring transcriptional activity was performed using the kit Bright-Glo™ Luciferase Assay System (Promega, Inc., Madison, WI), following the instructions supplied by the manufacturer and the Hek 293-TRE-LUC and Hek 293-CRE-LUC lines contain the response elements of transcription factors of the AP-1 complex, specifically of c-FOS and JUNB, respectively. The Hek 293-TRE-LUC and Hek 293-CRE-LUC lines were provided by Dr. Rosa Farrás.

HT29 [1] = assay: clonicity assay, HT29; type: cell-based; settings: Homo sapiens, HT-29; stimulated 72 hours, colonies counted after 10 days; read-out: survival IC50
Method: Clonicity assays were conducted to determine the toxicity of FM19G11 in p53-proficient (HT29 and HCT116/p53^+/+) and p53-deficient (HCT116/p53^-/-) tumor cells. Once the HT-29, HCT116/p53^+/+ and HCT116/p53^-/- cells were adhered to the culture plate, they were stimulated with increasing concentrations of FM19G11 (0.5, 1, 5, 10, 20, 50 µM) for 72 hours. After 10 days of stimulation, the number of colonies formed in the plates of treated and untreated cells was determined.
Results of the clonicity assays of HT29 human colon cancer cells, HCT116 cells treated with FM19G11 were monitored up to 10 after the treatment (Figure 28). The IC50 was determined by extrapolating the percentage with the concentration. FM19G11 was used at concentrations: 0.5, 1, 5, 10, 50, 100, 200 µM

HCT116/p53+/+ = assay: anchorage-independent growth in semisolid agar, HCT116/p53+/+; type: cell-based, human; settings: 0.5 µM, 10 days, versus DMSO, p ≤ 0.033
Method: Anchorage-independent cell growth is a study which allows predicting the tumorigenicity of tumor cells in vivo. Anchorage-independent cell growth studies were performed for HT29, HCT116/p53^+/+ and HCT116/p53^-/- cells in semisolid agar which were monitored daily to determine the efficiency of the formation of colonies in the presence of carrier (DMSO) or FM19G11. To that end, the starting material was 75 x 10^3 cells suspended in semisolid agar, which were maintained until 10 days later. […] A reduction of the formation of colonies in the HCT116/p53^-/- cells is not observed. The growth of colonies was quantified in three independent experiments by means of counting colonies in the 4 x magnification optical field of an inverted optical microscope.

HT29 [2] = assay: Western blot of DNA damage response proteins in HT29; type: cell-based, human; settings: 0.25 or 0.5 µM, 24 hours
Description: According to the results obtained by the Western blotting technique, FM19G11 triggers a DNA damage response (DDR) in human colon cancer cells (HT29).

[3] = tested on: AKT/mTOR/p70S6/Cyclin D1 signaling pathway; assay: activation kinetics of mTOR signaling pathway, HCT116/p53+/+; type: cell-based, human; settings: 0.5 µM
Method: as §1

Cc1ccc(C(=O)COC(=O)c2cccc(NC(=O)c3ccc([N+](=O)[O-])cc3[N+](=O)[O-])c2)cc1 [FM19G11, 2-oxo-2-(p-tolyl)ethyl 3-((2,4-dinitro)benzamido)benzoate]
mTOR phosphorylation (fold change) (mTOR): ≤ 2 | transcriptional levels of Hek 293-TRE-LUC (c-FOS): not affected in any case | IC50 (HT29 [1]): 1000 nM | growth of colonies in semisolid agar (HCT116/p53+/+): significant decrease | phosphorylation of DDR proteins (H2AX, MLH1, MSH6, BRCA1, ATM, ATR, CHK1, CHK2, p53) (HT29 [2]): efficiently increased the phosphorylation | activation of the AKT/mTOR/p70S6/Cyclin D1 signaling pathway (fold change) [3]: ≥ 2
